Tests used:
[1] = system: CaCo2 cell line; test: Bi-CaCo2 permeability assay; type: in vitro ADME, human
Protocol: (§1) The Caco-2 Permeability assay uses an established method for predicting the in vivo absorption of drugs across the gut wall. The transport rate across the CaCo2 cell line is measured. This cell line has a human colon carcinoma origin and resembles to the intestinal epithelia (a polarised monolayer with microvilli and intercellular tight junctions).
(§2) Bidirectional transport (apical to basolateral (A-B) and basolateral to apical (B-A)) across the cell monolayer were determined allowing to calculate the efflux ratio (an indicator as to whether a compound undergoes active efflux).

[2] = molecular target: T1, NGAL (Homo sapiens, UniProt P80188); test: NGAL-induced IL6 secretion in human cardiac fibroblasts (ELISA); type: cell-based; conditions: for Activity: NGAL-induced IL6 secretion (NGAL 10 ng/ml), Control = 1.00 ± 0.03
T1 construct: purchased R&D Systems
Protocol: (§3) Cell Culture Human cardiac fibroblasts (primary culture) were obtained from Promocell and maintained in medium (Fibroblast Media 3). Cells were cultured according to the manufacturer's instructions and used between passages 5 and 7. Cells were stimulated with aldosterone (10^-8 M, Sigma) or recombinant hNGAL (500 ng/mL, R&D Systems) for 24 h for protein analysis. Mouse kidney fibroblasts (MKF), were isolated from Wild Type (WT) mice. Briefly, mice 7 to 8 weeks were sacrificed by cervical dislocation and kidneys were cleaned and rinsed in cold DPBS (Dulbecco's Phosphate-Buffered Saline). The renal cortex was minced and incubated in Dulbecco's modified eagle medium/Nutrient mixture F-12 (DMEM/F12, Sigma) containing 1 mg/mL collagenase A (Roche) during 25 minutes at 37° C. The digestion was inactivated by adding culture medium (DMEM/F12+10% FBS) then the cell suspension was passed through a 100-μm cell strainer. After centrifugation, the pellet (containing MKF) was diluted with culture medium then plated in 75 cm^2 culture flask. After 24 hours MKF were washed with DPBS before replacement of fresh culture medium. Thereafter, culture medium was changed every 48 hours. Once 70-80% confluent, MKF were trypsinized and plated in 12 or 6-well plates. For experimental use, MKF were starved with culture medium containing only 3% FBS. MKF were treated with mNGAL (500 ng/mL, R&D Systems) for 24 h for gene expression analysis.
(§4) NGAL, IL6 and collagen type I concentrations were measured in cardiac tissue and cell supernatants, respectively, by ELISA according to the manufacturer's instructions (R&D Systems).
The inhibitory activity of the compounds was evaluated on the NGAL-induced IL6 secretion (NGAL 10 ng/ml) in human cardiac fibroblasts.
Inhibitory activities of 23 second generation compounds derived from GPZ614741 and GPZ058225 were evaluated on the NGAL-induced IL6 secretion (NGAL 10 ng/ml) in human cardiac fibroblasts.

[3] = molecular target: T1, NGAL; test: NGAL-induced Col 1 secretion in human cardiac fibroblasts (ELISA); type: cell-based; conditions: FIGS. 1 and 2 panel B
Protocol: as §3, with “After 24 hours MKF were washed with DPBS before replacement of fresh culture medium. Thereafter, culture medium was changed every 48 hours. Once 70-80% confluent, MKF were trypsinized and plated in 12 or 6-well plates. For experimental use, MKF were starved with culture medium containing only 3% FBS. MKF were treated with mNGAL (500 ng/mL, R&D Systems) for 24 h for gene expression analysis.” left out
as §4
(§5) The inhibitory activity of the compounds was evaluated on the NGAL-induced IL6 secretion (NGAL 10 ng/ml) in human cardiac fibroblasts. […]

[4] = molecular target: T1, NGAL; test: NGAL-induced profibrotic marker synthesis in human cardiac fibroblasts (western blot); type: cell-based; conditions: FIGS. 1 and 2 panel C
Protocol: Cell Culture Human cardiac fibroblasts (primary culture) were obtained from Promocell and maintained in medium (Fibroblast Media 3). Cells were cultured according to the manufacturer's instructions and used between passages 5 and 7. Cells were stimulated with aldosterone (10^-8 M, Sigma) or recombinant hNGAL (500 ng/mL, R&D Systems) for 24 h for protein analysis. Mouse kidney fibroblasts (MKF), were isolated from Wild Type (WT) mice. Briefly, mice 7 to 8 weeks were sacrificed by cervical dislocation and kidneys were cleaned and rinsed in cold DPBS (Dulbecco's Phosphate-Buffered Saline). The renal cortex was minced and incubated in Dulbecco's modified eagle medium/Nutrient mixture F-12 (DMEM/F12, Sigma) containing 1 mg/mL collagenase A (Roche) during 25 minutes at 37° C. […]
(§6) Total protein aliquots of 20 μg were prepared from cardiac homogenates and electrophoresed on SDS polyacrylamide gels and transferred to Hybond-c Extra nitrocellulose membranes (Amersham Biosciences). […] After densitometric analyses, optical density values were expressed as arbitrary units. Results are expressed as an n-fold increase over the values of the control group in densitometric arbitrary units.
as §5

[5] = system: aldosterone-induced profibrotic marker synthesis; test: Aldosterone-induced profibrotic marker synthesis in human cardiac fibroblasts; type: cell-based; conditions: FIGS. 1 and 2 panel D
Protocol: Cell Culture Human cardiac fibroblasts (primary culture) were obtained from Promocell and maintained in medium (Fibroblast Media 3). Cells were cultured according to the manufacturer's instructions and used between passages 5 and 7. Cells were stimulated with aldosterone (10^-8 M, Sigma) or recombinant hNGAL (500 ng/mL, R&D Systems) for 24 h for protein analysis. Mouse kidney fibroblasts (MKF), were isolated from Wild Type (WT) mice. Briefly, mice 7 to 8 weeks were sacrificed by cervical dislocation and kidneys were cleaned and rinsed in cold DPBS (Dulbecco's Phosphate-Buffered Saline). […]
as §6, §4, §5

[6] = system: isolated hepatocytes from swiss mice; test: Hepatotoxicity, MTT colorimetric assay; type: cell-based
Protocol: (§7) Two specific toxicity assays have been performed to assess hepatoxicity and cardiotoxicity. Hepatotoxicity was evaluated in isolated hepatocytes from swiss mice and determined by the MTT colorimetric assay. Cardiotoxicity was evaluated using the commercially available Predictor hERG fluorescence polarization kit (Thermo Fisher Scientific). Several ADME assays have been carried out on the compounds generated throughout the project. The following experiments were undertaken: Stability in human microsomes, binding to human plasma protein, and CYP3A4 inhibition assay (Vivid CYP3A4 assay, Thermo Fisher Scientific). Physico-chemical properties were also assessed such as aqueous solubility and chemical stability.

[7] = molecular target: T2, hERG channel (Homo sapiens, UniProt Q12809); test: Cardiotoxicity, Predictor hERG fluorescence polarization kit; type: binding
T2 construct: purchased Thermo Fisher Scientific
Protocol: as §7

[8] = system: human microsomes; test: Stability in human microsomes; type: in vitro ADME
Protocol: as §7

[9] = Binding to human plasma protein; type: in vitro ADME; conditions: human, human plasma protein; read-out: hPPB (converted)
Protocol: as §7

[10] = system: human plasma protein; test: Binding to human plasma protein; type: in vitro ADME
Protocol: as §7

[11] = molecular target: T3, CYP3A4 (Homo sapiens, UniProt P08684); test: CYP3A4 inhibition assay (Vivid CYP3A4 assay); type: in vitro ADME
T3 construct: purchased Thermo Fisher Scientific
Protocol: as §7

[12] = Aqueous solubility; type: physicochemical
Protocol: as §7

[13] = Chemical stability; type: physicochemical
Protocol: as §7

[14] = Bi-CaCo2 permeability assay; type: in vitro ADME, human; conditions: human, Caco-2; efflux ratio
Protocol: as §1, §2

[15] = molecular target: T1, NGAL; test: NGAL-induced proliferation of human cardiac fibroblast cells (MTT); type: cell-based; conditions: NGAL 10 ng/ml; FIG. 3
Protocol: as §3
Cell proliferation was assessed using the MTT Proliferation Assay (Sigma).
Results are shown on FIG. 3.

T1 sequence (P80188 21-198): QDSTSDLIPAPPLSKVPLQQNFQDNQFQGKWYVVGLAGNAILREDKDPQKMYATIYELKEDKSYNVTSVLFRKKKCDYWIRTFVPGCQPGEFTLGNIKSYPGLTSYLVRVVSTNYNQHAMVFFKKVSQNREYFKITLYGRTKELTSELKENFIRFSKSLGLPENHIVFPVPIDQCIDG
T2 sequence (Q12809 whole entry): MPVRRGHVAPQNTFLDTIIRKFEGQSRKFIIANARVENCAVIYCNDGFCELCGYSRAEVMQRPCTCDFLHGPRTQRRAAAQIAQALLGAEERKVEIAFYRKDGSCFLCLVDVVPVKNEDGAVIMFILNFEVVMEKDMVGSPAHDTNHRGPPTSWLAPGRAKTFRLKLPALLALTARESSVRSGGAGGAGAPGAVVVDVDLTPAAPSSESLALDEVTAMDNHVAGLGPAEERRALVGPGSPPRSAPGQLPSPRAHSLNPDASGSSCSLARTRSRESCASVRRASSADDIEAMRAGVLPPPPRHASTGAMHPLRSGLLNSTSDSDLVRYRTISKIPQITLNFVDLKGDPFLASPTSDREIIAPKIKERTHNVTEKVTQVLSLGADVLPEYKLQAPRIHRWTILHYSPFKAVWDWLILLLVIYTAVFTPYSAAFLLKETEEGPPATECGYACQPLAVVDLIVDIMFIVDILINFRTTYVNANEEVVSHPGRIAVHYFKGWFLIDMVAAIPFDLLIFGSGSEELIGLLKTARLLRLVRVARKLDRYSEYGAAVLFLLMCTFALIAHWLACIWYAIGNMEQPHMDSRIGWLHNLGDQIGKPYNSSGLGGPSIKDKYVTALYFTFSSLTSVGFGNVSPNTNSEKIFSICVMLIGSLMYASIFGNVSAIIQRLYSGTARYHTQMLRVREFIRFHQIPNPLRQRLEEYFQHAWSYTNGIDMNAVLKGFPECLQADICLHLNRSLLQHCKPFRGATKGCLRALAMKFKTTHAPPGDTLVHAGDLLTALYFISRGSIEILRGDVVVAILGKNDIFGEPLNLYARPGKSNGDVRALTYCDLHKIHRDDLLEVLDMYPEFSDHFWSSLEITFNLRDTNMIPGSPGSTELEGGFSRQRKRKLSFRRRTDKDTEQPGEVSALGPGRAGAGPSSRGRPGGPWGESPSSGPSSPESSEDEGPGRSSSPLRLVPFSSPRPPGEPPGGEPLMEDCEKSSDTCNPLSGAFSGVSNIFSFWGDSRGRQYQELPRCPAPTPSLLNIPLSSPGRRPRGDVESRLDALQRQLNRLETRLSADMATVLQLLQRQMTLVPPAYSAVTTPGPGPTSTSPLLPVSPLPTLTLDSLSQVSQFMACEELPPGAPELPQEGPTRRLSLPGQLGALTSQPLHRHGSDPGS
T3 sequence (P08684 whole entry): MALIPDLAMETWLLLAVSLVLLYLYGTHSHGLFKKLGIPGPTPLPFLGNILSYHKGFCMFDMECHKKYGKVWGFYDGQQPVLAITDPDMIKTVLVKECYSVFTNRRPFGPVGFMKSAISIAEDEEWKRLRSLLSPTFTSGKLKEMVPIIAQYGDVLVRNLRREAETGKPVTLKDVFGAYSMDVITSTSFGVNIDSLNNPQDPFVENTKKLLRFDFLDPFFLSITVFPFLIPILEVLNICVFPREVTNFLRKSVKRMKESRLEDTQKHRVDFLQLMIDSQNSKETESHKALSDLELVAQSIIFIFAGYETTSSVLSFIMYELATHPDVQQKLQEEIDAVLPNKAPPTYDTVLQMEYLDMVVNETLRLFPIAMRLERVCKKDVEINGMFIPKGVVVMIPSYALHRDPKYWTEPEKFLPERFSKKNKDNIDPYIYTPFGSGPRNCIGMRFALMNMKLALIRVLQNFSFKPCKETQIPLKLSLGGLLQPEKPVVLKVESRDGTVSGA

CC(C)NC[C@H](O)COc1cccc2ccccc12 (racemic) [propanolol, reference compound]
Ratio ([1]; efflux ratio): 1.56

CCS(=O)(=O)c1ccc2oc(SCc3cn4c(C)cc(C)nc4n3)nc2c1 [GPZ058225]
NGAL-induced IL6 secretion ([2]; NGAL 10 ng/ml, FIGS. 1 and 2 panel A): inhibited | Col 1 secretion (NGAL-induced) [3]: inhibited | NGAL-induced profibrotic marker (col1, col III, fibronectin, Gal3, OPN) synthesis [4]: inhibited | aldosterone-induced profibrotic marker (Col1, CT-1, or IL6) synthesis [5]: inhibited | hepatotoxicity (toxicity for hepatocytes) ([6]; MTT up to 0.1 mM): > 0.1 mM | Hepatotoxicity ([6]; cell wrapped over two lines: No tox up / 100 uM): No tox up | cardiotoxicity (hERG predictor assay) [7]: did not block hERG channel | Cardiotoxicity % (100 = no toxicity) ([7]; 100 = no toxicity): 101.73 ± 4.1% | microsomes degradation, left after 2 h ([8]; after 2 h): very stable | Micro Stability ([8]; human microsomes): 100% | fraction unbound [9]: 0.109 | PPB (binding to plasma proteins) [10]: within acceptance range | inhibited the enzyme activity (CYP3A4) in a competition assay [11]: 32% | Activity ([11]; human, recombinant CYP3A4 (Vivid CYP3A4 assay kit), 100 = no inhibition, read-out: CyP 3A4 Inhibition % (100 = no inhibition)): 68.1 ± 1.52% | Aquous solubility [12]: 63.46% | solubility in aqueous buffers (solubility test) [12]: 63% | Chemical Stability [13]: 92.2% | stability to acidic pH / digestive content [13]: very stable | efflux ratio [14]: 2.11 | permeability through the intestinal epithelia (in words) ([1]; compared with reference compound propranolol): quite high

O=C(Nc1nc2cc(F)c(F)cc2s1)c1cn2cccnc2n1 [GPZ278618]
Activity [2]: 0.86 ± 0.02

CC(=O)c1ccc(S(=O)(=O)Nc2ccccc2-n2cccn2)cc1 [GPZ478519]
Activity [2]: 0.69 ± 0.02

CC(=O)c1cccc(S(=O)(=O)NCc2ccccc2Cn2cccn2)c1 [GPZ505884]
Activity [2]: 0.83 ± 0.02

Clc1c(SCc2nc3ccccc3s2)nc2ncccn12 [GPZ564849]
Activity [2]: 0.85 ± 0.05

O=S(=O)(NCc1ccccc1-n1cccn1)c1ccccc1 [GPZ595600]
Activity [2]: 0.92 ± 0.04

Nc1ccc(S(=O)(=O)Nc2ccnn2-c2ccccc2)cc1 [GPZ624624, Sulfaphenazole]
NGAL-induced proliferation of human cardiac fibroblast cells [15]: Inhibitory effects

CC(=O)c1cccc(S(=O)(=O)NCc2ccccc2-c2ccc(CN(C)C)cc2)c1 [GPZ642292]
Activity [2]: 0.64 ± 0.02

CCN(CC)CCn1c(-c2ccccc2)noc1=N [GPZ646083, Imolamine]
NGAL-induced proliferation of human cardiac fibroblast cells [15]: Inhibitory effects

CC(=O)c1ccc(S(=O)(=O)NC(=O)NC2CCCCC2)cc1 [GPZ706277, Acetohexamide]
NGAL-induced proliferation of human cardiac fibroblast cells [15]: Inhibitory effects

Cc1cc(C)n2cc(CSc3nc4ccccc4[nH]3)nc2n1 [GPZ743042]
Activity [2]: 0.94 ± 0.03

N#Cc1cccc(S(=O)(=O)NCc2cccc(-n3cccn3)c2)c1 [GPZ778195]
Activity [2]: 0.88 ± 0.04

CC(=O)c1cccc(S(=O)(=O)NCc2ccccc2-c2ccsc2)c1 [GPZ863205]
Activity [2]: 0.93 ± 0.03

CCN1CCN(Cc2ccccc2CNS(=O)(=O)c2cccc(C(C)=O)c2)CC1 [GPZ913629]
Activity [2]: 0.93 ± 0.02
